Test results: patent publication US20190358181A1, “METHODS FOR AUTISM SPECTRUM DISORDER PHARMACOTHERAPY” (priority 2017, published 2019)
Where two headings read alike, the source gives them in different places.

Test: Suramin plasma pharmacokinetics by LC-MS/MS, two compartment population PK model, pediatric patients
Format: in vivo, human
Conditions: for concentration at 1 h: read-out: 1-Hour Plasma Conc; for concentration at 45 days: read-out: 45-Day Plasma Conc; for concentration at 2 days: read-out: 2-Day Plasma Conc
Protocol: For the test dose, 50 mg of suramin hexasodium (Bayer Pharmaceuticals, Inc.) in 5 mL of saline (experimental arm, 5 patients), or 5 mL of saline only (control arm, 5 patients) were given by slow intravenous (IV) push over 3 minutes, followed by a 10 mL flush of saline. One hour after the test dose, vital signs were repeated and a single infusion of either suramin (20 mg/kg, minus the 50 mg test dose, in 50 mL, up to a maximum of 1 gram) or saline (50 mL IV) was given over 30 minutes, followed by a 10 mL flush of saline.
Suramin pharmacokinetics was assessed by serum isolation at the 4 time points immediately before and after the infusion. […] Unexpected and adverse events were recorded as they occurred and graded in severity according to the National Cancer Institute Common Terminology Criteria for Adverse Events v4.03 (CTCAE) scale. Additional pharmacovigilence monitoring included daily scripted phone calls in the first week, then 4 weekly calls until the exit examinations at 6 weeks.
Heparinized plasma, 90 μl was prepared for LC-MS/MS analysis. Ten (10) μl of 50 μM stock of trypan blue was added to achieve an internal standard concentration of 5μM. This was incubated at room temperature for 10 min to permit metabolite interaction with binding proteins, then extracted with 4 volumes (400 μl) of pre-chilled methanol-acetonitrile (50:50) to produce a final concentration of 40:40:20 (methanol:acetonitrile:H2O), and precipitated on ice for 10 minutes. The samples were deproteinated and macromolecules removed by precipitation on crushed ice for 10 min.
The mixture was centrifuged at 16,000g for 10 min at 4° C. and the supernatant was transferred to a new tube and kept at −80° C. for further LC-MS/MS analysis.
Suramin was detected in the prepared samples on an AB SCIEX QTRAP 5500 triple quadrupole mass spectrometer equipped with a Turbo V electrospray ionization (ESI) source, Shimadzu LC-20A UHPLC system, and a PAL CTC autosampler. […] The mobile phase A was water with 20 mM ammonium acetate (NH4OAC) (pH 7) and mobile phase B was methanol with 20 mM NH4OAC (pH 7). […] The flow rate was 400 μl/min. All the samples were kept at 4° C. during analysis. Suramin and trypan blue were detected using MRM scanning mode with the dwell time of 180 ms. […] Absolute concentrations of suramin were determined using a standard curve prepared in plasma to account for matrix effects, and the peak area ratio of suramin to the internal standard trypan blue. […] The ESI source parameters were set as follows: source temperature 500° C.; curtain gas 30; ion source gas 1, 35; ion source gas 2 35; spray voltage −4500 V. Analyst v1.6 was used for data acquisition and analysis.
The small number of PK samples per subject prevented a standard, non-compartmental analysis in individual subjects. The suramin drug concentrations were analyzed using a population PK approach with post-hoc empiric Bayesian estimate of PK parameters in individual subjects. The PK data were fit to a two compartment model using the computer program NONMEM (ICON, Dublin, Ireland). PK parameters were scaled allometrically with volume terms scaled to linear body weight (kg1.0) and clearance terms scaled to weight (kg0.75). Scaled adult suramin parameters of compartmental volumes of distribution and clearance were used as initial parameter estimates and between subject variability only estimated for clearance (CL) and the peripheral volume of distribution (Vd).

[1] = human, plasma, iv, 20 mg/kg, Mean of 5 subjects, 20 mg/kg (558 mg/m^2) IV
[2] = human, plasma, iv, 460 mg, ID 007, 460 mg (529 mg/m^2) IV
[3] = human, plasma, iv, 460 mg, ID 012, 460 mg (529 mg/m^2) IV
[4] = human, plasma, iv, 500 mg, ID 005, 500 mg (526 mg/m^2) IV
[5] = human, plasma, iv, 680 mg, ID 001, 680 mg (591 mg/m^2) IV
[6] = human, plasma, iv, 1000 mg, ID 014, 1000 mg (613 mg/m^2) IV
[7] = human, plasma, Mean of 5 subjects, 20 mg/kg (558 mg/m^2) IV

Structure (SMILES): Cc1ccc(C(=O)Nc2ccc(S(=O)(=O)O)c3cc(S(=O)(=O)O)cc(S(=O)(=O)O)c23)cc1NC(=O)c1cccc(NC(=O)Nc2cccc(C(=O)Nc3cc(C(=O)Nc4ccc(S(=O)(=O)O)c5cc(S(=O)(=O)O)cc(S(=O)(=O)O)c45)ccc3C)c2)c1 [Suramin, suramin]
- clearance (20 mg/kg IV): 0.056±0.011 L/hr/m2
- steady-state volume of distribution (20 mg/kg IV): 22.7±2.6 L/m2
- suramin levels (before Day 2, all subjects): below 100 μM
- plasma concentrations maintained (between 2 days and 5-6 weeks following the dose): 1.5 to 15 µM
- half-life (human, plasma, iv, 20 mg/kg, 20 mg/kg IV, read-out: alpha (distribution) phase half-life (converted)): 0.308 ± 0.0229 days
- concentration at 1 h [1]: 104 µM
- concentration at 45 days [1]: 1.54 µM
- half-life (human, plasma, iv, 20 mg/kg, Mean of 5 subjects, 20 mg/kg (558 mg/m^2) IV, read-out: Plasma Half-Life (terminal elimination phase half-life) (converted)): 14.7 days
- concentration at 1 h [2]: 87.9 µM
- concentration at 2 days [2]: 11.9 µM
- concentration at 45 days [2]: 1.67 µM
- concentration at 1 h [3]: 119 µM
- concentration at 2 days [3]: 13.8 µM
- concentration at 45 days [3]: 2.28 µM
- half-life (human, plasma, iv, 460 mg, ID 012, 460 mg (529 mg/m^2) IV, read-out: Plasma Half-Life (converted)): 16.5 days
- concentration at 1 h [4]: 102 µM
- concentration at 2 days [4]: 10.6 µM
- concentration at 45 days [4]: 1.76 µM
- half-life (human, plasma, iv, 500 mg, ID 005, 500 mg (526 mg/m^2) IV, read-out: Plasma Half-Life (converted)): 15 days
- concentration at 1 h [5]: 101 µM
- concentration at 2 days [5]: 13.2 µM
- concentration at 45 days [5]: 0.96 µM
- half-life (human, plasma, iv, 680 mg, ID 001, 680 mg (591 mg/m^2) IV, read-out: Plasma Half-Life (converted)): 12.6 days
- concentration at 1 h [6]: 111 µM
- concentration at 2 days [6]: 10.6 µM
- concentration at 45 days [6]: 1.04 µM
- half-life (human, plasma, iv, 1000 mg, ID 014, 1000 mg (613 mg/m^2) IV, read-out: Plasma Half-Life (converted)): 14.9 days
- clearance (human, plasma, 20 mg/kg IV, read-out: clearance (converted)): 1.95 mL/h/kg
- Vd (human, plasma, 20 mg/kg IV, read-out: steady-state volume of distribution): 0.83 ± 0.014 L/kg
- concentration at 1 h [7]: 104 ± 11.6 µM
- concentration at 2 days [7]: 12 ± 1.5 µM
